Reference: patent US8592421B2, “Cyclic bioisosters of purine system derivatives and a pharmaceutical composition based thereon” (priority 2003, dated 2013)

How the values were obtained:
[1] = Electrochemical activity: polarographic reduction on mercury dripping electrode; assay type: physicochemical; conditions: for number of electrons participating in the reduction reaction: calculated with Geirovsky-Ilkovich equation; for i: 2.0% sodium chloride background, 9·10^−4 M; for i / −E1/2: 37° C., forward trace, average for the group of compounds; for −E1/2: vs SCE; for half-wave potential more positive at reverse stroke compared to forward stroke: polarograms of reverse stroke
Experimental: The study was carried out on a general-purpose polarograph PU-1 with a two-coordinate recorder of the “LKD” type using a three-electrode thermostatically controlled polarographic cell and mercury dripping electrode (MDE) with forced separation of the drop and a dropping period of 0.5 second. A platinum wire was used as an auxiliary electrode and a saturated calomel electrode (SCE) was used as a control electrode.
2.0% solutions of sodium chloride having pH 7.0, 7.2, 7.4, 7.6 were used as a background; the pH values of the background solution were corrected by a solution of sodium hydroxide. The polarographic cell was filled with 5.0 ml of the background solution and for 5 minutes was purged with nitrogen for removing the dissolved oxygen. Then 0.5 ml of solution of the studied substance was added to the background solution, and the polarogram was recorded as a polarographic wave. The concentration of the compounds in the polarographic cell was 9·10^−4 M.
The pH was measured on the pH-meter with an accuracy of +0.05 pH units. The polarographic measurements were carried out at a temperature of 37° C. The recording of polarograms of the investigated materials was effected under conditions of DC current at a scanning rate of the potential 10.0 mV/s with a active scanning stroke from a potential 0 to −0.5 V and sweep retrace from a −0.5 V to 0. The electric-current sensitivity was 5.0 mkA. The scale by the coordinate of the potentials was 50.0 mV/cm. The values of potentials of the half-wave E1/2 of the investigated materials are given with respect to the SCE potential.
The polarogram parameters such as a limiting current ilim and E1/2 were determined by the graphic method. The number of electrons participating in the reaction was calculated on the basis of the analysis of the polarographic wave using the Geirovsky-Ilkovich equation.
The calculation of the number of electrons participating in the reduction reaction was effected using the Geirovsky-Ilkovich equation: […]

[2] = Chronic toxicity of suppositories: indexes of peripheral blood; assay type: in vivo, rats; parameters: Thrombocytes: unit not given here; conditions: male rats, suppositories rectally; for Basophiles / Juveniles: 1 month/2 months (one value given), control 0

## O=c1[nH]n([C@@H]2O[C@H](CO)[C@@H](O)[C@H]2O)c(=O)c2ncnc(O)c12.[Na] [Compound 33, sodium salt of 4-hydroxy-7-(β-D-ribofuranosile)pyrimido[4,5-d]-6H-pyridazine-5,8-dione]
[1]
  number of electrons participating in the reduction reaction: 3.5
  half-wave potential more positive at reverse stroke compared to forward stroke: 27.0 mV
[1]; pH 7.0
  i: 0.30 ± 0.05 mkA
  −E1/2: 0.08 ± 0.02 V
[1]; pH 7.2
  i: 0.26 ± 0.02 mkA
  −E1/2: 0.085 ± 0.015 V
[1]; pH 7.4
  i: 0.30 ± 0.03 mkA
  −E1/2: 0.085 ± 0.02 V
[1]; pH 7.6
  i: 0.30 ± 0.02 mkA
  −E1/2: 0.09 ± 0.02 V

## disodium salt of 3-κapõoκcℏ-7-(β-D-ribofuranosile)pyrido[2,3-d]-6H-pyridazine-5,8-dione [Compound 5]
[1]
  number of electrons participating in the reduction reaction: 3.72
  half-wave potential more positive at reverse stroke compared to forward stroke: 25.0 mV
[1]; pH 7.0
  i: 0.26 ± 0.04 mkA
  −E1/2: 0.11 ± 0.02 V
[1]; pH 7.2
  i: 0.31 ± 0.02 mkA
  −E1/2: 0.11 ± 0.03 V
[1]; pH 7.4
  i: 0.27 ± 0.03 mkA
  −E1/2: 0.105 ± 0.01 V
[1]; pH 7.6
  i: 0.30 ± 0.01 mkA
  −E1/2: 0.105 ± 0.02 V

## O=C([O-])c1ncnc2c(=O)n([C@@H]3O[C@H](CO)[C@@H](O)[C@H]3O)[nH]c(=O)c12.[Na+] [Compound 34, sodium salt of 4-carboxy-7-(β-D-ribofuranosile)pyrimido[4,5-D]-6H-pyridazine-5,8-dione]
[2]; 50 mg/kg
  Basophiles: 0%
  Juveniles: 0%
[2]; 50 mg/kg, 1 month, control 0.8 ± 0.4
  Stab neutrophil: 1.0 ± 0.4%
[2]; 50 mg/kg, 1 month, control 2.2 ± 0.4
  REE: 1.8 ± 0.5 mm/h
[2]; 50 mg/kg, 1 month, control 2.8%0.3
  Reticulocytes: 2.7 ± 0.1%
[2]; 50 mg/kg, 1 month, control 4.0 + 0.3
  Eosinophiles: 3.5 ± 1.0%
[2]; 50 mg/kg, 1 month, control 5.6 ± 0.1
  Erythrocytes: 5.6 ± 0.1 mln/mm^3
[2]; 50 mg/kg, 1 month, control 10.5 ± 0.2
  Hemoglobin: 10.6 ± 0.1 mmol/L
[2]; 50 mg/kg, 1 month, control 17.4 ± 1.3
  Leukocyte: 15.9 ± 1.3 thousand/mm^3
[2]; 50 mg/kg, 1 month, control 45.9 ± 1.7
  Haematocrite: 46.9 ± 1.1%
[2]; 50 mg/kg, 1 month, control 81.4 ± 1.7
  Average volume of erythrocytes: 81.6 ± 1.9 Mkm^3
[2]; 50 mg/kg, 1 month, control 152 ± 10.2
  Coagulation, time: 148 ± 16 s
[2]; 50 mg/kg, 1 month, control 707 ± 23
  Thrombocytes: 670 ± 23
[2]; 50 mg/kg, 2 months, control 1.4 ± 0.2
  REE: 1.7 ± 0.3 mm/h
[2]; 50 mg/kg, 2 months, control 2.4 ± 0.4
  Stab neutrophil: 1.8 ± 0.5%
[2]; 50 mg/kg, 2 months, control 2.9 ± 0.2
  Reticulocytes: 2.9 ± 0.2%
[2]; 50 mg/kg, 2 months, control 4.4 + 1.2
  Eosinophiles: 4.1 ± 0.4%
[2]; 50 mg/kg, 2 months, control 6.1 ± 0.1
  Erythrocytes: 6.1 ± 0.2 mln/mm^3
[2]; 50 mg/kg, 2 months, control 11.4 ± 0.2
  Hemoglobin: 11.1 ± 0.2 mmol/L
[2]; 50 mg/kg, 2 months, control 19.1 ± 1.9
  Leukocyte: 17.8 ± 1.4 thousand/mm^3
[2]; 50 mg/kg, 2 months, control 45.9 ± 1.8
  Haematocrite: 47.5 ± 1.2%
[2]; 50 mg/kg, 2 months, control 74.6 + 1.9
  Average volume of erythrocytes: 76.7 ± 1.9 Mkm^3
[2]; 50 mg/kg, 2 months, control 316 ± 8
  Coagulation, time: 321 ± 10 s
[2]; 50 mg/kg, 2 months, control 593 ± 14
  Thrombocytes: 610 ± 15
[2]; 500 mg/kg
  Basophiles: 0%
  Juveniles: 0%
[2]; 500 mg/kg, 1 month, control 0.8 ± 0.4
  Stab neutrophil: 0.9 ± 0.2%
[2]; 500 mg/kg, 1 month, control 2.2 ± 0.4
  REE: 2.0 ± 0.4 mm/h
[2]; 500 mg/kg, 1 month, control 2.8%0.3
  Reticulocytes: 3.2 ± 0.2%
[2]; 500 mg/kg, 1 month, control 4.0 + 0.3
  Eosinophiles: 3.0 ± 0.9%
[2]; 500 mg/kg, 1 month, control 5.6 ± 0.1
  Erythrocytes: 5.6 ± 0.2 mln/mm^3
[2]; 500 mg/kg, 1 month, control 10.5 ± 0.2
  Hemoglobin: 10.6 ± 0.3 mmol/L
[2]; 500 mg/kg, 1 month, control 17.4 ± 1.3
  Leukocyte: 16.9 ± 1.0 thousand/mm^3
[2]; 500 mg/kg, 1 month, control 45.9 ± 1.7
  Haematocrite: 48.1 ± 1.5%
[2]; 500 mg/kg, 1 month, control 81.4 ± 1.7
  Average volume of erythrocytes: 84.1 ± 1.3 Mkm^3
[2]; 500 mg/kg, 1 month, control 707 ± 23
  Thrombocytes: 682 ± 24
[2]; 500 mg/kg, 2 months, control 1.4 ± 0.2
  REE: 1.8 ± 0.2 mm/h
[2]; 500 mg/kg, 2 months, control 2.4 ± 0.4
  Stab neutrophil: 1.4 ± 0.3%
[2]; 500 mg/kg, 2 months, control 2.9 ± 0.2
  Reticulocytes: 3.5 ± 0.3%
[2]; 500 mg/kg, 2 months, control 4.4 + 1.2
  Eosinophiles: 3.9 ± 1.4%
[2]; 500 mg/kg, 2 months, control 6.1 ± 0.1
  Erythrocytes: 6.6 ± 0.1 mln/mm^3
[2]; 500 mg/kg, 2 months, control 11.4 ± 0.2
  Hemoglobin: 12.4 ± 0.4 mmol/L
[2]; 500 mg/kg, 2 months, control 19.1 ± 1.9
  Leukocyte: 22.1 ± 1.1 thousand/mm^3
[2]; 500 mg/kg, 2 months, control 45.9 ± 1.8
  Haematocrite: 53.1 ± 1.6%
[2]; 500 mg/kg, 2 months, control 74.6 + 1.9
  Average volume of erythrocytes: 83.8 ± 1.5 Mkm^3
[2]; 500 mg/kg, 2 months, control 316 ± 8
  Coagulation, time: 312 ± 9 s
[2]; 500 mg/kg, 2 months, control 593 ± 14
  Thrombocytes: 631 ± 26

## O=c1[nH][nH]c(=O)c2nccnc12.[Na] [Compound 26, sodium salt of pyrazine[2,3-d]-6H-pyridazine-5,8-dione]
[1]
  half-wave potential more positive at reverse stroke compared to forward stroke: 27.0 mV

## O=c1[nH]n([C@@H]2O[C@H](CO)[C@@H](O)[C@H]2O)c(=O)c2ncccc12.[Na] [Compound 1, sodium salt of 7-(β-O-ribofuranosile)pyrido[2,3-1]-6H-pyridazine-5,8-dione sodium salt]
[1]
  number of electrons participating in the reduction reaction: 3.72
  half-wave potential more positive at reverse stroke compared to forward stroke: 25.0 mV
[1]; pH 7.0
  i: 0.26 ± 0.04 mkA
  −E1/2: 0.11 ± 0.02 V
[1]; pH 7.2
  i: 0.31 ± 0.02 mkA
  −E1/2: 0.11 ± 0.03 V
[1]; pH 7.4
  i: 0.27 ± 0.03 mkA
  −E1/2: 0.105 ± 0.01 V
[1]; pH 7.6
  i: 0.30 ± 0.01 mkA
  −E1/2: 0.105 ± 0.02 V

## COP(=O)(OC)C(C)(C)CC(C)=O [Dimesphosphon, dimethyl ester of 1,1-dimethyl-3-oxybuthyl of phosphonic acid, reference compound]
[1]
  number of electrons participating in the reduction reaction: 1.6
  half-wave potential more positive at reverse stroke compared to forward stroke: 50.0 mV
[1]; conclusion from calculated number
  electrons consumed during the reduction: 2
[1]; pH 7.0
  i: 0.10 ± 0.03 mkA
  −E1/2: 0.175 ± 0.01 V
[1]; pH 7.2
  i: 0.12 ± 0.03 mkA
  −E1/2: 0.17 ± 0.02 V
[1]; pH 7.4
  i: 0.11 ± 0.02 mkA
  −E1/2: 0.18 ± 0.01 V
[1]; pH 7.6
  i: 0.11 ± 0.02 mkA
  −E1/2: 0.18 ± 0.01 V

## potassium salt of 3-bromine-pyrazine[2,3-Cl]-6H-pyridazine-5,8-dione [Compound 27]
[1]
  number of electrons participating in the reduction reaction: 3.72
  half-wave potential more positive at reverse stroke compared to forward stroke: 20.0 mV
[1]; pH 7.0
  i: 0.32 ± 0.03 mkA
  −E1/2: 0.16 ± 0.02 V
[1]; pH 7.2
  i: 0.33 ± 0.04 mkA
  −E1/2: 0.19 ± 0.02 V
[1]; pH 7.4
  i: 0.34 ± 0.03 mkA
  −E1/2: 0.175 ± 0.01 V
[1]; pH 7.6
  i: 0.34 ± 0.02 mkA
  −E1/2: 0.16 ± 0.015 V
